As usually defined, the LD50 is the dose expected to kill half of the subjects tested.

Results on 27 molecules are retold here after patent US4395416A, “1-Spiro isobenzofuranic and 1-spiro isobenzothiophenic derivatives the process for preparing the same and their use in therapeutics” (Delalande S.A., priority 1981, dated 1983).

Data set [1] relates to mice. Nature of the data set: Protection against death induced by intravenous bicuculline (anti-convulsion activity). It counts as in vivo. The settings on record: Mus musculus, ip, intravenous injection of 0.7 mg/kg of bicuculline, read-out: Efficient doses 50 - ED 50 protecting against death induced by Bicuculline.
A short description of data set [2]: Acute toxicity (mice - LD 50). The note with it: mouse, in vivo, ip; for mortality: at 400 mg/kg, read-out: Acute toxicity, % at 400 (mg/kg/i.p.), printed in the LD 50 column.
The test system of data set [3] is mice. Nature of the data set: Phenylbenzoquinone test (analgesic activity). It is filed as in vivo. The settings on record: Mus musculus, ip, read-out: Phenylbenzoquinone test - ED 50. From the text: The analgesic activity was shown up on mice by interperitoneal injection of the compounds of formula (I) and their salts using the phenylbenzoquinone test according to the method described by E. SIEGMUND in Proced. Soc. Exp. Biol. and Med. 95, 729 (1957).

On to `O=C1SC2(CCCN2c2ccccc2)c2ccccc21` (stereo not shown) [compound 37], for which, in the data set with mice [1], the ED50 was 100 mg/kg. Moreover, the LD50 in data set [2] is above 400 mg/kg.
On to `S=C1OC2(CCCC2)c2ccccc21` [compound 24], for which the ED50 was determined as 63 mg/kg with mice [1] and 46 mg/kg in the data set with mice [3]. The same molecule displayed an LD50 in data set [2] above 400 mg/kg.
For the molecule `CN1CCCC12OCc1cc(Cl)ccc12` (stereo not shown) [compound 43], the values for the ED50 in the data set with mice [1] and in the data set on mice [3] were 27.5 mg/kg and 30 mg/kg, respectively. In data set [2], this molecule had an LD50 above 400 mg/kg.
Taken in the same sequence, the figures for `CCCN1CCCC12SC(=O)c1ccccc12` (stereo not shown) [Code number 4] were 47 mg/kg, 35 mg/kg and above 400 mg/kg.
As to `CC(C)CN1CCCC12SC(=O)c1cc(Cl)ccc12` (stereo not shown) [compound 36], the ED50 with mice [1] came to 30 mg/kg. In data set [2], this molecule showed an LD50 above 400 mg/kg.
With `CN1CCCC12SC(=O)c1cc(F)ccc12` (stereo not shown) [compound 16], the ED50 with mice [1] is 25 mg/kg. The LD50 in data set [2] was above 400 mg/kg.
Taken in the same sequence, the figures for `O=C1SC2(CCCN2c2ccc(Cl)cc2)c2ccccc21` (stereo not shown) [compound 39] were 62 mg/kg and above 400 mg/kg.
As for `COc1ccc2c(c1)C(=O)SC21CCCN1C` (stereo not shown) [compound 9], the ED50 in the data set with mice [1] turned out to be 40 mg/kg. In data set [2], this molecule gave a median lethal dose (LD50) above 400 mg/kg.
For `CN1CCCC12SC(=O)c1ccccc12` (stereo not shown) [Code number 1], the ED50 was determined as 7 mg/kg in the data set with mice [1] and 30 mg/kg in the data set on mice [3]. The LD50 in data set [2] is 400 mg/kg.
Turning to `CCCCN1CCCC12SC(=O)c1cc(Cl)ccc12` (stereo not shown) [compound 35], the ED50 in the data set with mice [1] was 26 mg/kg. In addition, the mortality in data set [2] was determined as 60%.
`CN1CCCC12SCc1ccccc12` (stereo not shown) [compound 22]: in the data set with mice [1], the ED50 was 34 mg/kg. In data set [2], this molecule returned an LD50 of 290 mg/kg.
The corresponding values for `O=C1OC2(CCCC2)c2ccccc21` [compound 23] are 76 mg/kg and above 400 mg/kg.
The corresponding values for `COc1cc2c(cc1OC)C1(CCCN1C)SC2=O` (stereo not shown) [compound 10] are 30 mg/kg and above 400 mg/kg.
The corresponding values for `CN1CCCC12SC(=O)c1cc(Cl)ccc12` (stereo not shown) [compound 6] are 8 mg/kg and above 400 mg/kg.
`CN1CCCCC12SC(=O)c1ccccc12` (stereo not shown) [compound 2]: the ED50 was determined as 100 mg/kg in the data set with mice [1] and 50 mg/kg in the data set on mice [3]. For the same molecule, the median lethal dose (LD50) in data set [2] was above 400 mg/kg.
Take `CCN1CCCC12SC(=O)c1ccccc12` (stereo not shown) [compound 3]: the ED50 with mice [1] was found to be 26 mg/kg. Moreover, in data set [2], the LD50 was above 400 mg/kg.
Taken in the same sequence, the figures for `CCN1CCCC12SC(=O)c1cc(Cl)ccc12` (stereo not shown) [compound 7] were 10 mg/kg and above 400 mg/kg.
The corresponding values for `COc1ccc2c(c1)C1(CCCN1C)SC2=O` (stereo not shown) [compound 8] are 100 mg/kg and above 400 mg/kg.
Taken in the same sequence, the figures for `CN1CCCC12SCc1cc(Cl)ccc12` (stereo not shown) [compound 45] were 15 mg/kg and above 400 mg/kg.
For the molecule `CN1CCCC12SC(=O)c1ccc(Cl)cc12` (stereo not shown) [compound 5], in the data set with mice [1], the ED50 was 80 mg/kg. Moreover, the LD50 in data set [2] was above 400 mg/kg.
Turning to `CN1CCCC12OCc1ccccc12` (stereo not shown) [compound 21], the values for the ED50 in the data set on mice [1] and in the data set with mice [3] were 15 mg/kg and 100 mg/kg, respectively. In addition, the LD50 in data set [2] amounted to 275 mg/kg.
Taken in the same sequence, the figures for `CN1CCCC12OC(c1ccccc1)c1ccccc12` (stereo not shown) [compound 44] were 45 mg/kg, 64 mg/kg and above 400 mg/kg.
As to `O=C1SC2(CCCN2c2ccc(Cl)cc2)c2ccc(Cl)cc21` (stereo not shown) [compound 40], the ED50 with mice [1] came to 100 mg/kg. This molecule also came in with an LD50 in data set [2] above 400 mg/kg.
The corresponding values for `CN1CCCC12SC(=O)c1cc3ccccc3cc12` (stereo not shown) [compound 42] are 34 mg/kg and above 400 mg/kg.
The corresponding values for `CN1CCCC12SC(=O)c1cc(Br)ccc12` (stereo not shown) [compound 41] are 29.5 mg/kg and above 400 mg/kg.
For `O=C1SC2(CCCN2c2ccccc2)c2ccc(Cl)cc21` (stereo not shown) [compound 38], the ED50 in the data set with mice [1] came to 56 mg/kg. In addition, the median lethal dose (LD50) in data set [2] is above 400 mg/kg.
Regarding `CCCN1CCCC12SC(=O)c1cc(Cl)ccc12` (stereo not shown) [compound 34], the ED50 with mice [1] is 11 mg/kg. Moreover, the mortality in data set [2] is 40%.
